In ChEMBL document CHEMBL1149374, “Synthesis and biological evaluation of gem-diamine 1-N-iminosugars related to L-iduronic acid as inhibitors of heparan sulfate 2-O-sulfotransferase” (Bioorg Med Chem Lett, 2006):

Biological target: T1, Heparan sulfate 2-O-sulfotransferase 1 (Cricetulus longicaudatus) (UniProt O08889)
T1 sequence (whole entry): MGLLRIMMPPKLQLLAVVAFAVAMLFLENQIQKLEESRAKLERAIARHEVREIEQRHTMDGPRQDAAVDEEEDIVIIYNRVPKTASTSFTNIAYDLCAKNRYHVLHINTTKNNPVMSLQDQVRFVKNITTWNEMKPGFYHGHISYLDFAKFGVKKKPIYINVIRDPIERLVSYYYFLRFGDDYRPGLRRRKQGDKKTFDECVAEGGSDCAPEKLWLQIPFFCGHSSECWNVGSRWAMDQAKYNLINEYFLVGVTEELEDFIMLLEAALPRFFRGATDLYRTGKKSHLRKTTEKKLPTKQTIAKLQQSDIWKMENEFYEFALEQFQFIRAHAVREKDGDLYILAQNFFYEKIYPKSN
Assay: Inhibition of sulfate transfer by HS 2-O-ST from CHO cells
Type: functional, cell-based
Settings: concentration not given here

SMILES | inhibition [%]
CCC(CC)C(=O)N1C[C@@H](C(=O)O)[C@H](N=C(N)N)[C@H](O)[C@H]1NC(C)=O | 84
CC(=O)N[C@H]1NC[C@@H](C(=O)O)[C@H](N=C(N)N)[C@@H]1O | 76
